US6884593B1, “Method of identifying properties of substance with respect to human prostaglandin D2 receptors” (BML, Inc., priority 1999, dated 2005)

Tests used:
human CRTH2 [1] = biological target: T1, human CRTH2 (Homo sapiens, UniProt Q9Y5Y4); assay: [^3H]PGD2 binding assay, cells expressing human CRTH2 (KB8); conditions: for order of the degree of the binding affinity of prostanoids to human CRTH2: [^3H]PGD2 binding in the presence of unlabeled prostanoids, KB8, FIG. 3; for degree of binding affinity of human CRTH2 compared with that of the DP receptor: comparison human CRTH2 vs DP receptor
T1 construct: A transformant into which full-length human CRTH2 cDNA is integrated is deposited as B19 cDNA; expressed in transfected cells
T1 sequence (Q9Y5Y4 1-395): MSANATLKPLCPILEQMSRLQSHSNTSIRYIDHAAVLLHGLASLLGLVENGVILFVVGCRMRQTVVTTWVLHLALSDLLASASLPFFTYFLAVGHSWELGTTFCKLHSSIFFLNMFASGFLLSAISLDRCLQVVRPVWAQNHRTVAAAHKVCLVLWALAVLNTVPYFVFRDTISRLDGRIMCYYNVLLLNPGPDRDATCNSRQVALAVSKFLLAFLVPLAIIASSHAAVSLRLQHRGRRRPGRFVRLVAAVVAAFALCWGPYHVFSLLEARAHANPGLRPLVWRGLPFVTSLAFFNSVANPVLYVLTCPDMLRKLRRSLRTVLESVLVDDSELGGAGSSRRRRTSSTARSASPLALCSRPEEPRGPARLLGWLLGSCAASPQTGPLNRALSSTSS
Procedure: Human CRTH2 gene expression plasmid pRc/B19 was prepared by means of a method described in detail in Nagata, K. et al., J. Immunol., 162: 1278-1286, 1999 and Japanese Sai-Kohyo (PCT) Patent Publication WO 97/46677. A transformant into which full-length human CRTH2 cDNA is integrated is deposited as B19 cDNA in National Institute of Bioscience and Human-Technology, Agency of Industrial Science and Technology (deposit number: FERM P-15616), and B19 cDNA can be used after approval is obtained from the depositor. When B19 cDNA is digested with restriction enzymes HindIII and XbaI, and is subcloned into the HindIII/XbaI site of plasmid pRc/CMV (product of Invitrogen), the same expression plasmid as the aforementioned pRc/B19 can be prepared. Through electroporation, the pRc/B19 and control plasmid pRc/CMV were genetically introduced into K562 cells, a human erythroblastic leukemia cell strain, and were subjected to selective culture for two to three weeks in the presence of 400 μg/ml of geneticin (product of SIGMA). Among the K562 cells into which the pRc/B19 had been genetically introduced, the survived cells were added to a 96-well microplate (0.3 cells per well), and then cultured for two to three weeks. The proliferated cell clones were subjected to fluorescence staining by use of an anti human CRTH2 antibody (Nagata, K. et al., J. Immunol., 162: 1278-1286, 1999), and clone KB8, in which human CRTH2 was highly expressed, was obtained. The K562 cells into which the control pRc/CMV had been genetically introduced were selected by use of geneticin, and then culture of the resultant cells was continued while polyclones were present (hereinafter the cells will be referred to as “K562/neo”).
(§1) Each of KB8 cells, KD36 cells, and K562/neo cells was resuspended in Hank's balanced salt solution (HBSS, product of Gibco BRL) so as to attain a concentration of 3×10^7 cells/ml. The resultant suspension (0.1 ml) was placed in a 0.5-ml microtube, and then cooled on ice. Subsequently, 1 nM of [^3H]PGD2 (product of Amersham) which had been diluted with HBSS was added to the suspension, to thereby allow reaction to proceed on ice for one hour. The reacted cells were placed carefully onto RPMI1640 medium (1 ml) containing 1 M sucrose and 10% fetal bovine serum, the medium having been placed in an 1.5-ml microtube and cooled by ice, and subjected to centrifugation (10,000 revolutions, three minutes) by use of a micro-centrifuge. […] The radiation activity of the cells bound to [^3H]PGD2 was measured by use of a liquid scintillation counter. The radiation activity of the cells when measured, in a manner similar to that described above, in the presence of unlabeled PGD2 (concentration: 200 times or more that of [^3H]PGD2) was used as an index of non-specific binding. […] In contrast, the specific binding of [^3H]PGD2 to KB8 or KD36 is observed.
(§2) [^3H]PGD2 binding assay described in Example 3 was carried out in the presence of various unlabeled prostanoids (products of Cayman), and the binding affinity of human CRTH2 to various prostanoids was evaluated.

DP receptor [2] = biological target: T2, DP receptor (Homo sapiens, UniProt Q13258); assay: [^3H]PGD2 binding assay, cells expressing DP receptor (KD36); conditions: [^3H]PGD2 binding in the presence of unlabeled prostanoids, KD36, FIG. 3
T2 construct: the coding region of the human DP receptor was amplified through PCR; expressed in transfected cells; cDNA from human small intestine poly(A)+ RNA
T2 sequence (Q13258 1-359): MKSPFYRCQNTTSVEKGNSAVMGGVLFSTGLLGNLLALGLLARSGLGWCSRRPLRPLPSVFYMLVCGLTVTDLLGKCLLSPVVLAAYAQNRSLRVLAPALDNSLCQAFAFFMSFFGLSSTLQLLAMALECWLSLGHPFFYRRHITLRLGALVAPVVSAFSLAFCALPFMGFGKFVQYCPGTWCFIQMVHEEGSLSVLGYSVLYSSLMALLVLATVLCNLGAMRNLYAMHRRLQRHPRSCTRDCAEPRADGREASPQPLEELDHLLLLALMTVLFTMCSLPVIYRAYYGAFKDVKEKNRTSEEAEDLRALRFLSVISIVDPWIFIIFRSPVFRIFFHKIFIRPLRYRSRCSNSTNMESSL
Procedure: Human DP receptor cDNA was cloned through RT-PCR on the basis of the nucleotide sequence of human DP receptor cDNA described in Boie, Y. et al., J. Biol. Chem., 270: 18910-18916, 1995 and Japanese Kohyo (PCT) Patent Publication No. 10-507930. Specifically, the cDNA was prepared by use, as an template, of poly(A)+RNA (product of Clonetech) of the human small intestine in which the human DP receptor is highly expressed, and by use of oligo (dT) primer (product of Pharmacia) and MMLV reverse transcriptase (product of Pharmacia). Subsequently, the coding region of the human DP receptor was amplified through PCR (35 heat cycles, each cycle consisting of heating at 94° C. for 1 minute, at 68° C. for 1 minute, and at 72° C. for 1 minute) by use of a forward primer (5′-[…]: SEQ No. 1) containing a restriction enzyme HindIII site, and a reverse primer (5′-[…]: SEQ No. 2) containing an XbaI site. The resultant PCR product was digested with HindIII and XbaI, and subcloned into the HindIII/XbaI site of pRc/CMV. The thus-prepared human DP receptor expression plasmid was introduced into a K562 cell in a manner similar to that described in Example 1, and subjected to selection by use of geneticin and to cloning. The proliferated clones were subjected to the below-described [^3H]PGD2 binding assay, to thereby obtain clone KD36 in which the DP receptor is highly expressed.
as §1, §2

human CRTH2 [3] = biological target: T1, human CRTH2; assay: Intracellular calcium assay, KB8 cells; type: cell-based; conditions: treatment with PGD2 (some nM), Fura-2AM
Procedure: (§3) Each of KB8 cells, KD36 cells, and K562/neo cells was suspended in RPMI1640 medium containing 10% fetal bovine serum so as to attain a concentration of 5×10^6 cells/ml, and cultured at 37° C. for one hour in the presence of 5 μM of Fura-2AM (product of Dojindo). After completion of culturing, the cells were washed three times with HBSS through centrifugation, to thereby remove free Fura-2AM. Subsequently, the resultant cells were resuspended in HBSS containing 0.1% bovine serum albumin so as to attain a concentration of 10^6 cells/ml. The resultant suspension was placed in a quartz cell (volume: 0.4 ml), and the cell was set in spectrophotometer LS50B (product of PerkinElmer). After a sample was added to the suspension, the time-course change of the ratio of fluorescence intensities (510 nm) at excitation wavelengths of 340 nm and 380 nm was obtained through calculation by use of FL-Winlab software (product of PerkinElmer).

DP receptor [4] = biological target: T2, DP receptor; assay: Intracellular calcium assay, KD36 cells; type: cell-based; conditions: treatment with PGD2 (some nM), Fura-2AM
Procedure: as §3

K562/neo cells = assay: Intracellular calcium assay, control K562/neo cells; type: cell-based, human; conditions: treatment with PGD2 (0.25-250 nM), Fura-2AM
Procedure: as §3

human CRTH2 [5] = biological target: T1, human CRTH2; assay: Down modulation of human CRTH2 molecules from cell surface, KB8 cells; type: cell-based; conditions: 37° C. for one hour, flow cytometer, FIG. 4
Procedure: KB8 cells were suspended in RPMI1640 medium containing 10% fetal bovine serum so as to attain a concentration of 10^6 cells/ml, and cultured at 37° C. for one hour in the presence of a test sample. After completion of culturing, the cells were washed twice with HBSS through centrifugation, to thereby remove cell-free part of the sample. Subsequently, the resultant cells were resuspended in HBSS containing 0.5% bovine serum albumin and 0.05% NaN3, and the resultant suspension was subjected to fluorescence staining by use of anti CRTH2 monoclonal antibody HM16 and phycoerythrin-labeled anti rat immunoglobulin antibody. The average fluorescence intensity of the stained cells was measured by use of a flow cytometer (product of Becton Dickinson), and the fluorescence intensity of the cells treated with the sample was compared with that of non-treated cells (control).

CCCCC[C@H](O)/C=C/[C@H]1C(=O)C[C@H](O)[C@@H]1C/C=C\CCCC(=O)O [PGD2, Prostaglandin D2]
order of the degree of the binding affinity of prostanoids to human CRTH2 (human CRTH2 [1]): PGD2≧13,14-dihydro-15-keto PGD2
degree of binding affinity of human CRTH2 compared with that of the DP receptor (human CRTH2 [1]): equal to that of the binding affinity of the DP receptor to PGD2
order of the degree of the binding affinity of prostanoids to the DP receptor (DP receptor [2]): PGD2=PGJ2
concentration of calcium in the cells (human CRTH2 [3]): increased considerably
concentration of calcium in the cells (DP receptor [4]): increased considerably
concentration of calcium in the cells (K562/neo cells): did not vary significantly
down modulation of CRTH2 (average fluorescence intensity vs non-treated control) (human CRTH2 [5]): induce down modulation of CRTH2 significantly as compared with the control

CCCCCC(=O)CCC1C(=O)CC(O)C1C/C=C\CCCC(=O)O (stereo not shown) [13,14-dihydro-15-keto PGD2]
order of the degree of the binding affinity of prostanoids to human CRTH2 (human CRTH2 [1]): PGD2≧13,14-dihydro-15-keto PGD2>>prostaglandin J2 (PGJ2)
degree of binding affinity of human CRTH2 compared with that of the DP receptor (human CRTH2 [1]): a great difference exists between human CRTH2 and the DP receptor
order of the degree of the binding affinity of prostanoids to the DP receptor (DP receptor [2]): PGE2>13,14-dihydro-15-keto PGD2>15-deoxydelta 12,14-PGJ2
down modulation of CRTH2 (average fluorescence intensity vs non-treated control) (human CRTH2 [5]): induce down modulation of CRTH2 significantly as compared with the control

CCCCC[C@H](O)/C=C/[C@H]1OC(O)C[C@H](O)[C@@H]1C/C=C\CCCC(=O)O (stereo partly shown) [TXB2, thromboxane B2]
order of the degree of the binding affinity of prostanoids to human CRTH2 (human CRTH2 [1]): prostaglandin A2 (PGA2)>>thromboxane B2 (TXB2)
order of the degree of the binding affinity of prostanoids to the DP receptor (DP receptor [2]): 15-deoxydelta 12,14-PGJ2≧TXB2≧PGA2

CCCCC/C=C/C=C1/C(=O)C=CC1C/C=C\CCCC(=O)O (stereo not shown) [15-deoxydelta 12,14-PGJ2]
order of the degree of the binding affinity of prostanoids to human CRTH2 (human CRTH2 [1]): prostaglandin J2 (PGJ2)>15-deoxydelta 12,14-PGJ2≧prostaglandin E2 (PGE2)
order of the degree of the binding affinity of prostanoids to the DP receptor (DP receptor [2]): 13,14-dihydro-15-keto PGD2>15-deoxydelta 12,14-PGJ2≧TXB2

CCCCC[C@H](O)/C=C/[C@H]1C(=O)C=C[C@@H]1C/C=C\CCCC(=O)O [PGJ2, prostaglandin J2]
order of the degree of the binding affinity of prostanoids to human CRTH2 (human CRTH2 [1]): 13,14-dihydro-15-keto PGD2>>prostaglandin J2 (PGJ2)>15-deoxydelta 12,14-PGJ2
order of the degree of the binding affinity of prostanoids to the DP receptor (DP receptor [2]): PGD2=PGJ2>>PGE2

CCCCC[C@H](O)/C=C/[C@H]1C=CC(=O)[C@@H]1C/C=C\CCCC(=O)O [PGA2, prostaglandin A2]
order of the degree of the binding affinity of prostanoids to human CRTH2 (human CRTH2 [1]): prostaglandin E2 (PGE2)=prostaglandin A2 (PGA2)>>thromboxane B2 (TXB2)
order of the degree of the binding affinity of prostanoids to the DP receptor (DP receptor [2]): TXB2≧PGA2

CCCCC[C@H](O)/C=C/[C@H]1[C@H](O)CC(=O)[C@@H]1C/C=C\CCCC(=O)O [PGE2, prostaglandin E2]
order of the degree of the binding affinity of prostanoids to human CRTH2 (human CRTH2 [1]): 15-deoxydelta 12,14-PGJ2≧prostaglandin E2 (PGE2)=prostaglandin A2 (PGA2)
order of the degree of the binding affinity of prostanoids to the DP receptor (DP receptor [2]): PGJ2>>PGE2>13,14-dihydro-15-keto PGD2
down modulation of CRTH2 (average fluorescence intensity vs non-treated control) (human CRTH2 [5]): does not exert such an effect
